# Where a name gives a salt, the structure may show the parent alone.
# Test system: MTT (mouse pheochromocytoma)
# Assay: IC50 of cell viability (ATP content)
# Settings: (24 or 48 h)
# Method in brief: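 MTT mouse pheochromocytoma cells (5 µl of 200,000 cells/ml per well, white 1536-well plates, DMEM with 5% FBS and 1% horse serum) were cultured overnight at 37°C, 5% CO2. They then received 23 nl library compound in DMSO by pintool at 8 concentrations (final 0.5 nM to 46 µM) for 24 or 48 hrs. CellTiter-Glo ATP luminescence was read after 15 minutes. Signals were normalised to positive-control (100% inhibition) and DMSO (0%) wells, and IC50 came from a four-parameter logistic fit.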
row,SMILES,IC50 of cell viability
1,COc1cc(C(=O)OCCCN2CCCN(CCCOC(=O)c3cc(OC)c(OC)c(OC)c3)CC2)cc(OC)c1OC [DILAZEP],> 46 µM
2,COc1ccc2c(=O)c(C)c(-c3ccccc3)oc2c1CN(C)C [DIMEFLINE HYDROCHLORIDE],> 46 µM
3,CC(Cc1ccccc1)N(C)C (stereo not drawn) [DIMETAMFETAMINUM],> 46 µM
4,CC1(C)OC(=O)NC1=O [DIMETHADIONE],> 46 µM
5,CCCCCCCCCCCCCC(=O)OCC(COP(=O)([O-])OCC[N+](C)(C)C)OC(=O)CCCCCCCCCCCCC (stereo not drawn) [DIMYRISTOYL LECITHIN],> 46 µM
6,Cc1c(C(N)=O)cc([N+](=O)[O-])cc1[N+](=O)[O-] [DINITOLMIDE],> 46 µM
7,CCOC(=O)C1(c2ccccc2)CCN(CCC(C#N)(c2ccccc2)c2ccccc2)CC1 [DIPHENOXYLATE HYDROCHLORIDE],> 46 µM
8,C[N+]1(CC2COC(c3ccccc3)(c3ccccc3)O2)CCCCC1 (stereo not drawn) [DIPHENYLPIPERIDINOMETHYLDIOXOLAN IODIDE (Anacolin)],> 46 µM
9,O=[N+]([O-])c1cc(I)c(O)c(I)c1 [DISOPHENOL SODIUM],> 46 µM
10,Cn1cc(NC(=O)c2cc(NC(=O)c3cc(NC=O)cn3C)cn2C)cc1C(=O)NCCC(=N)N [DISTAMYCIN A],> 46 µM
11,CN(C)C(=O)Nc1ccc(Cl)c(Cl)c1 [DIURON],> 46 µM
12,CC(CCc1ccc(O)cc1)NCCc1ccc(O)c(O)c1 (stereo not drawn) [DOBUTAMINE],> 46 µM
13,CC/C=C\C/C=C\C/C=C\C/C=C\C/C=C\C/C=C\CCC(=O)O [DOCOSAHEXAENOIC ACID],> 46 µM
14,CCCCCCCCCCCCCCCCCCCCCCO [DOCOSANOL],> 46 µM
15,C[S+](=O)([O-])O.O.O=C(O[C@@H]1C[C@@H]2C[C@@H]3C[C@H](C1)N2CC3=O)c1c[nH]c2ccccc12 [DOLASETRON MESYLATE],> 46 µM
16,COc1cc2c(cc1OC)C(=O)C(CC1CCN(Cc3ccccc3)CC1)C2 (stereo not drawn) [DONEPEZIL HYDROCHLORIDE],> 46 µM

row,SMILES,IC50 of cell viability
1,NCCc1ccc(O)c(O)c1 [DOPAMINE],> 46 µM
2,C[C@@H](O)[C@H]1C(=O)N2C(C(=O)O)=C(S[C@@H]3CN[C@H](CN[S+](N)(=O)[O-])C3)[C@H](C)[C@H]12 [DORIPENEM HYDRATE],> 46 µM
3,CCN1CC(CCN2CCOCC2)C(c2ccccc2)(c2ccccc2)C1=O (stereo not drawn) [DOXAPRAM HYDROCHLORIDE],> 46 µM
4,OCC(O)CN1CCN(c2ccccc2)CC1 (stereo not drawn) [DROPROPIZINE],> 46 µM
5,CN(C)CCO [Deanol],> 46 µM
6,CC(=O)N(O)CCCCCNC(=O)CCC(=O)N(O)CCCCCNC(=O)CCC(=O)N(O)CCCCCN.C[S+](=O)([O-])O [Deferoxamine mesylate],> 46 µM
7,CC(=O)O[C@H]1CC[C@]\2(C)[C@@H]3CC[C@@]4(C)[C@H](CCC4=O)[C@@H]3C\C=C2C1 [Dehydroisoandosterone 3-acetate],> 46 µM
8,[Na+].C[C@]12CC[C@H]3[C@@H](C\C=C/4C[C@H](CC[C@]34C)O[S]([O-])(=O)=O)[C@@H]1CCC2=O [Dehydroisoandrosterone 3-sulfate sodium],> 46 µM
9,O=C1C[N+]([O-])=C(c2ccccc2)c2cc(Cl)ccc2N1 [Demoxepam],> 46 µM
10,CN1[C@@H]2CC[C@@H]1CC(OC1c3ccccc3CCc3ccccc31)C2.O=C(O)CC(O)(CC(=O)O)C(=O)O (stereo partly drawn) [Deptropine citrate],> 46 µM
11,ClC1=CC=C2NC(=O)C\N=C(\C3=CC=CC=C3)C2=C1 [Desmethyldiazepam],> 46 µM
12,Cc1cccc(Cc2c[nH]cn2)c1C [Detomidine],> 46 µM
13,CC(C)Cc1ccc([C@H](C)C(=O)O)cc1 [Dexibuprofen],> 46 µM
14,Br.COc1ccc2c(c1)[C@]13CCCC[C@@H]1[C@H](C2)N(C)CC3.O [Dextromethorphan hydrobromide monohydrate],> 46 µM
15,CN1CC[C@@]23CCCC[C@@H]2[C@@H]1Cc1ccc(O)cc13 [Dextrorphan tartrate],> 46 µM

# Second part, the molecule after the results:
row,IC50 of cell viability,SMILES
1,> 46 µM,CC1CCC(O)C/C1=C\C=C1/CCCC2(C)C1CCC2C(C)/C=C/C(C)C(C)C (stereo not drawn) [DIHYDROTACHYSTEROL]
2,> 46 µM,COc1ccc([C@@H]2Sc3ccccc3N(CCN(C)C)C(=O)[C@@H]2OC(C)=O)cc1 [DILTIAZEM]
3,> 46 µM,CCN(CC)CCOc1ccc2nc(N(C)C)sc2c1 [DIMAZOLE DIHYDROCHLORIDE]
4,> 46 µM,CCCCC[C@H](O)/C=C/[C@H]1[C@H](O)CC(=O)[C@@H]1C/C=C\CCCC(=O)O [DINOPROSTONE]
5,> 46 µM,COC1=CC=C(C=C1O)C/2=C/C(=O)C3=C(O)C=C(O[C@H]4OC(COC5OC(C)C(O)C(O)[C@H]5O)C(O)C(O)C4O)C=C3O2 (stereo partly drawn) [DIOSMIN]
6,> 46 µM,CN(C)CCOC(c1ccccc1)c1ccccc1 [DIPHENHYDRAMINE]
7,> 46 µM,c1ccc(-c2nc[nH]c2-c2ccccc2)cc1 [DIPHENYLIMIDAZOLE]
8,> 46 µM,CC[N+](CC)(CC)CCOC(=O)C(C1CCCC1)C1CCCC1 [DIPONIUM BROMIDE]
9,> 46 µM,OCCN(CCO)c1nc(N2CCCCC2)c2nc(N(CCO)CCO)nc(N3CCCCC3)c2n1 [DIPYRIDAMOLE]
10,> 46 µM,CC(=O)Oc1cccc(C(=O)O)c1OC(C)=O [DIPYROCETYL]
11,> 46 µM,CC[C@H]1OC(=O)[C@H](C)[C@@H](O[C@H]2C[C@@](C)(OC)[C@@H](O)[C@H](C)O2)[C@H](C)[C@@H](O[C@@H]2O[C@H](C)C[C@H](N(C)C)[C@H]2O)[C@](C)(O)C[C@@H](C)[C@@H]2N[C@@H](COCCOC)O[C@H]([C@H]2C)[C@]1(C)O [DIRITHROMYCIN]
12,> 46 µM,CCN(CC)C(=S)S [DITIOCARBUM NATRICUM]
13,> 46 µM,CC(=O)O[C@@]12CO[C@@H]1C[C@H](O)[C@@]1(C)C(=O)[C@H](O)C3=C(C)[C@@H](OC(=O)C(O)[C@@H](NC(=O)OC(C)(C)C)c4ccccc4)C[C@@](O)([C@@H](OC(=O)c4ccccc4)[C@H]21)C3(C)C (stereo partly drawn) [DOCETAXEL]
14,> 46 µM,FC(F)(F)C(F)(F)C(F)(F)C(F)(F)C(F)(F)F [DODECAFLUOROPENTANE]
15,> 46 µM,Cc1ccc(-n2nc(C(C)(C)C)cc2NC(=O)Nc2ccc(OCCN3CCOCC3)c3ccccc23)cc1 [DORAMAPIMOD]
16,> 46 µM,O=[N+]([O-])c1nccn1CO[C@@H](CO)[C@H](O)CO [DORANIDAZOLE]
17,> 46 µM,CCN(CC)CCOC(=O)C(c1ccccc1)C1CCCCC1.Cl (stereo not drawn) [DROFENINE HYDROCHLORIDE]
18,> 46 µM,CN(C)/N=N/c1nc[nH]c1C(N)=O [Dacarbazine]
19,> 46 µM,C#C[C@]1(O)CC[C@H]2[C@@H]3CCC4=Cc5oncc5C[C@]4(C)[C@H]3CC[C@@]21C [Danazol]

row,IC50 of cell viability,SMILES
1,> 46 µM,CN1C[C@@H]2C[C@H]1CN2c1cc2c(cc1F)c(=O)c(C(=O)O)cn2C1CC1 [Danofloxacin mesylate]
2,> 46 µM,O=C1c2cccc(O)c2C(=O)c2c(O)cccc21 [Danthron]
3,> 46 µM,Cc1c(Cn2ccnc2)c2ccccc2n1CCC(=O)O [Dazmegrel]
4,> 46 µM,N=C(N)N1CCc2ccccc2C1 [Debrisoquin sulfate]
5,> 46 µM,CCCCCCCCCC(=O)O [Decanoic acid]
6,> 46 µM,CCCCCCCCCCOCC(O)CN (stereo not drawn) [Decominol]
7,> 46 µM,Cc1cc(O)cc2c1O[C@](C)(CCC[C@H](C)CCC[C@H](C)CCCC(C)C)CC2 [Delta-Vitamin E]
8,> 46 µM,CN(C)[C@H]\1[C@@H]2C[C@@H]\3[C@@H](O)C4=C(Cl)C=CC(=C4C(=O)C3=C(\O)[C@@]2(O)C(=O)\C(=C1O)C(N)=O)O [Demeclocycline hydrochloride]
9,> 46 µM,C[C@H](CCC(=O)[O-])[C@H]1CC[C@H]2[C@@H]3CC[C@@H]4C[C@H](O)CC[C@]4(C)[C@H]3C[C@H](O)[C@]12C [Deoxycholic acid sodium salt]
10,> 46 µM,C[C@@]12CC[C@H]3[C@@H](CC\C4=C\C(=O)CC[C@@]34C)[C@H]1CC[C@H]2C(=O)CO [Deoxycorticosterone]
11,> 46 µM,C[C@]12CC[C@H]3c4ccc(O)cc4CC[C@@H]3[C@H]1CC[C@@H]2OC(=O)CCC1CCCC1 [Depoestradiol]
12,> 46 µM,CCCCNc1ccc(C(=O)OCC[NH+](CC)CC)cc1 [Depolipon]
13,> 46 µM,CNCCCN1c2ccccc2CCc2ccccc21 [Desipramine hydrochloride]
14,> 46 µM,ClC1=CC=C2C(CCC3=C(N=CC=C3)\C2=C4\CCNCC4)=C1 [Desloratadine]
15,> 46 µM,C[C@@H]1C[C@H]2[C@@H]3CCC/4=C/C(=O)/C=C\[C@]4(C)[C@@]3(F)[C@@H](O)C[C@]2(C)[C@H]1C(=O)CO [Desoximetasone]
16,> 46 µM,N[C@@H](Cc1cc(I)c(Oc2ccc(O)c(I)c2)c(I)c1)C(=O)O [Detrothyronin]
17,> 46 µM,C[C@@H]1C[C@@H]2[C@H]3CC\C4=C\C(=O)\C=C/[C@]4(C)[C@]3(F)[C@@H](O)C[C@@]2(C)[C@@]1(O)C(=O)COC(C)=O [Dexamethasone acetate]
18,> 46 µM,CN(C)CC[C@@H](c1ccc(Br)cc1)c1ccccn1 [Dexbrompheniramine maleate salt]

# Reference: the supplement of paper PMC3974653
